Data on 10 compounds can be found in patent US20110224247A1, “AZAISOQUINOLINONE DERIVATIVES AS NK3 ANTAGONISTS” (H. LUNDBECK A/S, priority 2010, published 2011).

The target of data set [1] is T1, human NK3 receptor (Homo sapiens, UniProt P29371).
T1 construct: expressed in transfected cells; membranes prepared
T1 sequence (P29371 1-465): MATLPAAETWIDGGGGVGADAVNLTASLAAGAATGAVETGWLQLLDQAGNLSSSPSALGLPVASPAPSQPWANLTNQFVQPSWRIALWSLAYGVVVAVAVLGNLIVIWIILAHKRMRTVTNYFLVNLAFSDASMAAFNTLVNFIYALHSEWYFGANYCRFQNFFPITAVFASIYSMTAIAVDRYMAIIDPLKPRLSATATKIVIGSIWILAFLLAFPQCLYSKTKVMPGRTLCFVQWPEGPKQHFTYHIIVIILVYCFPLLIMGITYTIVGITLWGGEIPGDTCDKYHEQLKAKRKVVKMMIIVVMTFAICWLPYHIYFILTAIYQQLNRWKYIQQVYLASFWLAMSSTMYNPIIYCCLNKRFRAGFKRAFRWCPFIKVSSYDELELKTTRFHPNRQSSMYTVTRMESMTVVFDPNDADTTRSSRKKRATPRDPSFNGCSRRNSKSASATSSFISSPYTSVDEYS
The data set can be described thus: NK3 receptor binding assay. Particulars: filter-based competition binding vs ~0.05 nM 3H-AE93103, membranes of BHK cells expressing human NK3; Ki by Cheng Prusoff; read-out: Affinity (Ki/nM). Here is the method:
Membranepreparation: BHK cells stably expressing the human NK3 receptor were seeded in harvesting plates in Dulbeccos MEM containing GlutaMax (862 mg/l), 1 mM sodium pyruvate, 10% fetal calf serum, 1% Pen/Strep, 1 mg/ml G418 and were grown at 34° C. in a humidified atmosphere containing 10% CO2. To increase receptor expression, 10 μM trichotatin A was added to the media 24 hours before harvest of the cells at a confluency of app 90%. Prior to the harvesting, the cells were washed twice with PBS without Mg^2+ and Ca^2+ and subsequently scrapped of in 10 ml PBS pr harvesting plate. The cells suspension were centrifuged at 1500×G in three minutes before resuspension in 15 mM Tris-HCl pH 7,5 buffer containing 2 mM MgCl2; 0,3 mM EDTA and 1 mM EGTA (buffer A). The cell suspention was homogenised and subsequently centrifuged at 40000×G in 30 minutes. The membrane-pellet was resuspended in buffer A containing 250 mM sucrose, alliquoted and stored at −80° C.
Affinity assay description: The assay is performed as a filter-based competition-binding in a 50 mM Tris pH 7.4 assay buffer containing 120 mM NaCl and 3 mM MnCl2. App 0.05 nM ^3H-AE93103 was mixed with test compounds before addition of 0.15 μg of a homogenised NK3 membrane preparation in a total volume of 300 μl. The assay plate is incubated for 90 min at RT before content of the wells is transferred using a cell-harvester to GF/C filter plates, which has been pretreated with 0.1% PEI. The filter is washed 3 times with 1 ml an ice-cold 50 mM Tris buffer, pH 7,4. The filter is dried and added scintillation liquid before the plate is counted in a topcounter 5 minutes pr well.
The total binding, which comprised less than 10% of added radioligand, was defined using assay buffer whereas the non-specific binding was defined in the presence of 1 μM SR142801. The non-specific binding constituted ˜10% of the total binding. Data points are expressed in percent of the specific binding of ^3H-AE93103 and the […] (concentration causing 50% inhibition of ^3H-AE93103 specific binding) are determined by non-linear regression analysis using a sigmoidal variable slope curve fitting.

The conditions of data set [2]: cited from earlier work.
The conditions of data set [3]: in vivo; cited from earlier work.
The conditions of data set [4]: cited from earlier work. The source holds these as a separate data set.

Structures are written as SMILES.

In the case of `CCCNn1c(C)c(C(=O)N[C@H](c2cccc(Cl)c2)C2CC2)c2cnccc2c1=O` [Example 1c, 3-Methyl-1-oxo-2-propylamino-1,2-dihydro-[2,6]naphthyridine-4-carboxylic acid [(S)-(3-chloro-phenyl)-cyclopropyl-methyl]-amide], the Ki in data set [1] is 540 nM. Turning to `CC(=O)N(C)C1(c2ccccc2)CCN(CCC[C@]2(c3ccc(Cl)c(Cl)c3)CCCN(C(=O)c3ccccc3)C2)CC1` [Osanetant], in data set [2] (delusions, hallucinations and paranoia), the “Effect in clinical trials, in particular on positive symptoms of psychosis” value is “superior to placebo”. For the same compound, in data set [3], the bioavailability result is on record as “poor”, the blood-brain barrier penetration result is on record as “poor” and the clearance result is “relatively high”. Besides, the solubility result in data set [4] is listed as “poor”.

For the compound `CCCNn1c(C)c(C(=O)N[C@H](c2cccc(F)c2)C2CCC2)c2cnccc2c1=O` [Example 1e, 3-Methyl-1-oxo-2-propylamino-1,2-dihydro-[2,6]naphthyridine-4-carboxylic acid [(S)-cyclobutyl-(3-fluoro-phenyl)-methyl]-amide], the Ki in data set [1] is 33 nM. Still for that read-out and setting: under `CCCNn1c(C)c(C(=O)N[C@H](c2ccc(F)cc2)C2CC2)c2cnccc2c1=O` [Example 1b, 3-Methyl-1-oxo-2-propylamino-1,2-dihydro-[2,6]naphthyridine-4-carboxylic acid [(S)-cyclopropyl-(4-fluoro-phenyl)-methyl]-amide] stands 720 nM; under `CCCNn1c(C)c(C(=O)N[C@@H](CC)c2ccccc2)c2cnccc2c1=O` [Example 1g, 3-Methyl-1-oxo-2-propylamino-1,2-dihydro-[2,6]naphthyridine-4-carboxylic acid ((S)-1-phenyl-propyl)-amide], 430 nM. The same measure, in the same setting: under `CCNn1c(C)c(C(=O)N[C@H](c2cccc(F)c2)C2CCC2)c2ccncc2c1=O` [Example 3a, 2-Ethylamino-3-methyl-1-oxo-1,2-dihydro-2,7-naphthyridine-4-carboxylic acid [(S)-cyclobutyl-(3-fluoro-phenyl)-methyl]-amide] stands 110 nM. For the compound `CC[C@H](NC(=O)c1c(O)c(-c2ccccc2)nc2ccccc12)c1ccccc1` [talnetant], in data set [2] (schizophrenics), the “Effect on cognitive behaviour of schizophrenics in clinical trials” value is on record as “ameliorate the cognitive behaviour”. Besides, in data set [3], the bioavailability result was “poor”, the blood-brain barrier penetration entry is “poor” and the clearance result is “relatively high”. Besides, the solubility result in data set [4] is “poor”.

Take `CCNn1c(C)c(C(=O)N[C@H](c2cccc(F)c2)C2CCC2)c2cnccc2c1=O` [Example 1a, 2-Ethylamino-3-methyl-1-oxo-1,2-dihydro-[2,6]naphthyridine-4-carboxylic acid [(S)-cyclobutyl-(3-fluoro-phenyl)-methyl]-amide]: the Ki in data set [1] came to 58 nM.

In the case of `CCCNn1c(C)c(C(=O)NC(c2ccccc2F)C2CCC2)c2cnccc2c1=O` (stereo not drawn) [Example 1d, 3-Methyl-1-oxo-2-propylamino-1,2-dihydro-[2,6]naphthyridine-4-carboxylic acid [cyclobutyl-(2-fluoro-phenyl)-methyl]-amide], the Ki in data set [1] was 160 nM.

`CCNn1c(C)c(C(=O)N[C@H](c2cccc(F)c2)C2CCC2)c2ncccc2c1=O` [Example 2a, 6-Ethylamino-7-methyl-5-oxo-5,6-dihydro-[1,6]naphthyridine-8-carboxylic acid [(S)-cyclobutyl-(3-fluoro-phenyl)-methyl]-amide]: the Ki in data set [1] worked out at 91 nM.
